Laboratory results reported in patent US20230172849A1, “INHALED STATINS FOR TREATMENT OF VIRAL RESPIRATORY DISEASES” (priority 2020, published 2023).
Entries after “also recorded” stand apart in the source; their conditions may differ. Counter-ions that a name gives are not always drawn. Like-named read-outs stand apart in the source and are kept apart here.

Legend:
[1] = system: SARS-CoV-2; assay: combination therapy, viral load by RT-PCR (ORF1ab gene) in Calu-3 cells; assay type: cell-based; set-up: key to enhanced decrease of viral load, combination vs two single agents: Each combination that showed an enhanced decrease of viral load as compared with the two single agents is denoted by “E”; Combinations that showed a slight trend towards an enhanced decrease of viral load as compared with the two single agents is denoted by “(e)”; —; settings: for decrease of viral load, agent alone: FIG. 31, mixed with SARS-CoV-2 (MOI 0.01) 1 hour at room temperature, RT-PCR (ORF1ab) 24 hours post infection, of the control
[2] = molecular target: SARS-CoV-2 Spike S1 (RBD) (Severe acute respiratory syndrome coronavirus 2, UniProt P0DTC2); assay: biochemical; assay type: binding
[3] = system: SARS-CoV-2; assay type: cell-based
[4] = system: human bronchial epithelial cells (HBE1); assay: depletion of total cellular cholesterol in HBE1 cells; assay type: cell-based; settings: HBE1, 48 hours; 50-400 nM and 1-20 μM; concentrations marked (*) in FIGS. 1, 2; p<0.05
Method: Total cellular cholesterol was measured by spectrophotometry, and plotted as the ratio of absorbance to total protein in μg. […] Significant reductions in cholesterol content (≥50%, p<0.05) are indicated (*).

[5] = Table 2, read-out: Affinity (nM) of binding to SARS-COV2 Spike protein

For `C[C@@H]1C[C@H]2[C@@H]3CCC4=CC(=O)C=C[C@]4(C)[C@@]3(F)[C@@H](O)C[C@]2(C)[C@@]1(O)C(=O)CO` [Dexamethasone, dexamethasone], the “decrease of viral load, agent alone” value [1] was 46%.
`CC[C@H](C)C(=O)O[C@H]1C[C@H](O)C=C2C=C[C@H](C)[C@H](CC[C@@H](O)C[C@@H](O)CC(=O)O)[C@H]21` [INS101, Pravastatin Sodium] was tested, and the “binding to SARS-COV-2 S-protein (in words)” value (shortened to “binding”) ([2]; MST binding assay) was “weak binding; also recorded: none or very low affinity” and the Remarks ([2]; Table 1, binding to SARS-CoV-2 S1) was “No interaction/weak binder”.
With `CCC(C)(C)C(=O)O[C@H]1C[C@@H](C)C=C2C=C[C@H](C)[C@H](CC[C@@H]3C[C@@H](O)CC(=O)O3)[C@H]21` [INS102, Simvastatin] the “enhanced decrease of viral load, combination vs two single agents” value (shortened to “enhanced decrease of viral load”) ([1]; statin 0.1 μM + Dex 0.1 μM) was “—”, the “enhanced decrease of viral load” value ([1]; statin 0.1 μM + Dex 1 μM) was “E” and the “enhanced decrease of viral load” value ([1]; statin 0.1 μM + Dex 10 μM) was “E”. For the same molecule, the “enhanced decrease of viral load” value ([1]; statin 0.1 μM + Remde 1) was “—”, the “enhanced decrease of viral load” value ([1]; statin 0.1 μM + Remde 10) was “—” and the “enhanced decrease of viral load” value ([1]; statin 0.1 μM + Remde 100) was “—”. For the same molecule, the “enhanced decrease of viral load” value ([1]; statin 1 μM + Dex 0.1 μM) was “E”, the “enhanced decrease of viral load” value ([1]; statin 1 μM + Dex 1 μM) was “E” and the “enhanced decrease of viral load” value ([1]; statin 1 μM + Dex 10 μM) was “—”. For the same molecule, the “enhanced decrease of viral load” value ([1]; statin 1 μM + Remde 1) was “—”, the “enhanced decrease of viral load” value ([1]; statin 1 μM + Remde 10) was “—” and the “enhanced decrease of viral load” value ([1]; statin 1 μM + Remde 100) was “E”. The “enhanced decrease of viral load” value ([1]; statin 10 μM + Dex 0.1 μM) was “—”, the “enhanced decrease of viral load” value ([1]; statin 10 μM + Dex 1 μM) was “—” and the “enhanced decrease of viral load” value ([1]; statin 10 μM + Dex 10 μM) was “—”. The “enhanced decrease of viral load” value ([1]; statin 10 μM + Remde 1) was “—”, the “enhanced decrease of viral load” value ([1]; statin 10 μM + Remde 10) was “—” and the “enhanced decrease of viral load” value ([1]; statin 10 μM + Remde 100) was “E”. The “Average (percent cell viability)” value ([3]; Case A: compound added 1 h after infection, 72 h contact, 0.1 uM) was 5.506%, the “Average (percent cell viability)” value ([3]; Case A: compound added 1 h after infection, 72 h contact, 1 uM) was 7.304% and the “Average (percent cell viability)” value ([3]; Case A: compound added 1 h after infection, 72 h contact, 10 uM) was 17.48%. The “Average (percent cell viability)” value ([3]; Case B: compound added 24 h after infection, 48 h contact, 0.1 uM) was 6.427%, the “Average (percent cell viability)” value ([3]; Case B: compound added 24 h after infection, 48 h contact, 1 uM) was 9.597% and the “Average (percent cell viability)” value ([3]; Case B: compound added 24 h after infection, 48 h contact, 10 uM) was 11.85%. The “Average (percent cell viability)” value ([3]; Case C: compound added 48 h after infection, 24 h contact, 0.1 uM) was 3.967%, the “Average (percent cell viability)” value ([3]; Case C: compound added 48 h after infection, 24 h contact, 1 uM) was 2.16% and the “Average (percent cell viability)” value ([3]; Case C: compound added 48 h after infection, 24 h contact, 10 uM) was 6.117%. For the same molecule, the “Average (percent cell viability)” value ([3]; Case D: pre-treated 6 h, then infected 72 h, 0.1 uM) was 35.26%, the “Average (percent cell viability)” value ([3]; Case D: pre-treated 6 h, then infected 72 h, 1 uM) was 31.9% and the “Average (percent cell viability)” value ([3]; Case D: pre-treated 6 h, then infected 72 h, 10 uM) was 33.31%. For the same molecule, the “Average (percent cell viability)” value ([3]; Case E: pre-treated 24 h, then infected 72 h, 0.1 uM) was −0.98%, the “Average (percent cell viability)” value ([3]; Case E: pre-treated 24 h, then infected 72 h, 1.0 uM) was 29.28% and the “Average (percent cell viability)” value ([3]; Case E: pre-treated 24 h, then infected 72 h, 10.0 uM) was 46.90%. For the same molecule, the “Average (percent cell viability)” value ([3]; Case F: compound 1 h before infection (coinc 1 h), then virus 72 h, 0.1 uM) was 10.1%, the “Average (percent cell viability)” value ([3]; Case F: compound 1 h before infection (coinc 1 h), then virus 72 h, 1 uM) was 8.721% and the “Average (percent cell viability)” value ([3]; Case F: compound 1 h before infection (coinc 1 h), then virus 72 h, 10 uM) was 19.4%. For the same molecule, the “reduction in cholesterol content” value [4] was at least 50%.
For `CC(C)c1c(C(=O)Nc2ccccc2)c(-c2ccccc2)c(-c2ccc(F)cc2)n1CC[C@@H](O)C[C@@H](O)CC(=O)O` [INS104, Atorvastatin], the “decrease of viral load, agent alone” value [1] was 22%, the “decrease in viral load, combination with remdesivir or dexamethasone vs monotherapies” value ([1]; FIGS. 30, 31, statin and SARS-CoV-2 (MOI 0.01) mixed 1 hour at room temperature, 24 hours post infection) was “synergistic” and the “enhanced decrease of viral load” value ([1]; statin 0.2 μM + Dex 0.1 μM) was “—”. For the same molecule, the “enhanced decrease of viral load” value ([1]; statin 0.2 μM + Dex 1 μM) was “(e)”, the “enhanced decrease of viral load” value ([1]; statin 0.2 μM + Dex 10 μM) was “—” and the “enhanced decrease of viral load” value ([1]; statin 0.2 μM + Remde 1) was “—”. For the same molecule, the “enhanced decrease of viral load” value ([1]; statin 0.2 μM + Remde 10) was “—”, the “enhanced decrease of viral load” value ([1]; statin 0.2 μM + Remde 100) was “(e)” and the “enhanced decrease of viral load” value ([1]; statin 1 μM + Dex 0.1 μM) was “—”. The “enhanced decrease of viral load” value ([1]; statin 1 μM + Dex 1 μM) was “E”, the “enhanced decrease of viral load” value ([1]; statin 1 μM + Dex 10 μM) was “(e)” and the “enhanced decrease of viral load” value ([1]; statin 1 μM + Remde 1) was “—”. For the same molecule, the “enhanced decrease of viral load” value ([1]; statin 1 μM + Remde 10) was “(e)”, the “enhanced decrease of viral load” value ([1]; statin 1 μM + Remde 100) was “—” and the “enhanced decrease of viral load” value ([1]; statin 5 μM + Dex 0.1 μM) was “—”. The “enhanced decrease of viral load” value ([1]; statin 5 μM + Dex 1 μM) was “synergistic enhancement and E”, the “enhanced decrease of viral load” value ([1]; statin 5 μM + Dex 10 μM) was “enhancement was maintained at a lower level and E” and the “enhanced decrease of viral load” value ([1]; statin 5 μM + Remde 1) was “—”. The “enhanced decrease of viral load” value ([1]; statin 5 μM + Remde 10) was “enhancement in the decrease of viral load and E”, the “enhanced decrease of viral load” value ([1]; statin 5 μM + Remde 100) was “—” and the Kd [2] was 234 to 456 nM. The Remarks [2] was “Strong Binding”, the S/N [2] was 8.5-8.7 and the “binding” value [2] was “bind with SARS-COV-2 S-protein at nanomolar (nM) concentrations”. For the same molecule, the Kd ([2]; read-out: Affinity (nM) of binding to SARS-COV2 Spike protein) was 234 to 456 nM.
For `CC[C@H](C)C(=O)O[C@H]1C[C@@H](C)C=C2C=C[C@H](C)[C@H](CC[C@@H]3C[C@@H](O)CC(=O)O3)[C@H]21` [INS105, Lovastatin], the Kd [2, 5] was 529 to 929 nM.
`CCC(C)(C)C(=O)O[C@H]1C[C@@H](C)C=C2C=C[C@H](C)[C@H](CC[C@@H](O)C[C@@H](O)CC(=O)O)[C@H]21` [INS106, Simvastatin Hydroxy Acid, Ammonium Salt] gave a Kd [2, 5] of 1570 to 2600 nM.
With `C[C@H](N[C@@H](CCc1ccccc1)C(=O)O)C(=O)N1CCC[C@H]1C(=O)O` [INS107] the “binding” value ([2]; MST binding assay) was “no binding is indicated”.
In the case of Hydroxy Simvastatin [INS102-S], the “binding” value ([2]; MST binding assay) is reported as “weak binding”.
